From patent US20170239351A1, “Therapeutic Combinations of a BTK Inhibitor, a PI3K Inhibitor, a JAK-2 Inhibitor, a PD-1 Inhibitor, and/or a PD-L1 Inhibitor” (Acerta Pharma B.V., priority 2014, published 2017)

What was measured:
B cell receptor = assay: Whole blood B cell receptor signalling assay (anti-IgD, CD69 on CD19+ B cells); assay type: cell-based; conditions: 2 h incubation, anti-human IgD 18 h
Experimental: Blood from four healthy donors was incubated for 2 hours with the compounds shown over a concentration range, and then stimulated with anti-human IgD [10 μg/mL] for 18 hours. The mean fluorescent intensity (MFI) of CD69 (and CD86, data not shown) on gated CD19+ B cells was measured by flow cytometry.

[1] = system: KPC derived mouse pancreatic cancer cells; assay: Orthotopic pancreatic cancer model (KPC-derived cells); assay type: in vivo, C57BL/6 mice; conditions: 15 mg/kg oral of each drug
Experimental: Orthotopic pancreatic cancer models in mice are clinically relevant, benefit from tissue site-specific pathology, and allow for study of metastasis. Qiu and Su, Methods Mol. Biol. 2013, 980, 215-223. A cell line derived from KrasG12D; Trp53R172H; Pdx1-Cre (KPC) mice was orthotopically implanted into the head of the pancreas after 35 passages. Based on the mice background from where the cell lines were generated, 1×10^6 cells were injected in C57BL/6 mice. Throughout the experiment, animals were provided with food and water ad libitum and subjected to a 12-h dark/light cycle. Animal studies were performed in accordance with the U.S. Public Health Service “Guidelines for the Care and Use of Laboratory Animals” (IACUC). After euthanization, pancreatic tumors were dissected out, weighed and single cell suspensions were prepared for flow cytometry analysis.
Results of the experiments are shown in FIG. 110, which illustrates tumor growth suppression in the orthotopic pancreatic cancer model. The statistical p-value (presumption against null hypothesis) is shown for each tested single active pharmaceutical ingredient and for the combination against the vehicle.
In this study, KrasG12D;Trp53R172H; Pdx1-Cre (KPC) derived mouse pancreatic cancer cells (10,000 cells) were injected into the pancreases of 24 female mice. After one week of expansion, drug treatment was started in mice developing pancreatic tumors.
Single cell suspensions from tumor samples were prepared as follows. Mouse tumor tissue was collected and stored in PBS/0.1% soybean trypsin inhibitor prior to enzymatic dissociation. […] Following surface staining, samples were acquired on a BD Fortessa and analyzed using FlowJo (Treestar) software.

Raji cells [2] = assay: Antibody-dependent NK cell-mediated cytotoxicity, chromium release assay, Raji cells; assay type: cell-based; conditions: 1 μM, rituximab, effector:target 25:1, 4 hours
T helper 17 (Th17) cells = assay: Effect on T helper 17 (Th17) cells; assay type: cell-based
[3] = system: regulatory T cell (Treg) development; assay: Regulatory T cell (Treg) development; assay type: cell-based
CD8^+ T cell = assay: CD8+ T cell viability; assay type: cell-based
CD8^+ T cell function [4] = assay: Cytotoxicity assay for CD8+ T cell function; assay type: cell-based; conditions: relative to vehicle
CD8^+ T cell function [5] = assay: IFN-γ level measurements for CD8+ T cell function; assay type: cell-based; conditions: relative to vehicle
[6] = system: human platelet-mediated thrombosis; parameters: species or system VWF HA1 mice (human platelets); conditions: in vivo
Experimental: […]. Injury to the vessel wall of arterioles ([…] diameter) was performed using a pulsed nitrogen dye laser (440 nm, Photonic Instruments) applied through a 20× water-immersion Olympus objective (LUMPlanF1, 0.5 numerical aperature (NA)) of a Zeiss Axiotech vario microscope. Human platelet and wall interactions were visualized by fluorescence microscopy using a system equipped with a Yokogawa CSU-22 spinning disk confocal scanner, iXON EM camera, and 488 nm and 561 nm laser lines to detect BCECF-labeled and rhodamine-labeled platelets, respectively (Revolution XD, Andor Technology). The extent of thrombus formation was assessed for 2 minutes after injury and the area (μm^2) of coverage determined (Image IQ, Andor Technology).
. The BTK inhibitor-treated human platelets were fluorescently labeled and infused continuously through a catheter inserted into the femoral artery. Their behavior in response to laser-induced vascular injury was monitored in real time using two-channel confocal intravital microscopy (Furie and Furie, J. Clin. Invest. 2005, 115(12), 2255-62). Upon induction of arteriole injury untreated platelets rapidly formed thrombi with an average thrombus size of […] (mean±s.e.m.), as shown in FIG. 124 and FIG. 125. […]. […]. […]

human platelets = assay: GPVI (convulxin-induced) platelet aggregation; assay type: cell-based
Experimental: GPVI platelet aggregation was measured for Formula (XVIII) and Formula (XX-A) (ibrutinib). Blood was obtained from untreated humans, and platelets were purified from […] by centrifugation. Cells were resuspended to a final concentration of 350,000/μL in buffer containing 145 mmol/L NaCl, 10 mmol/L HEPES, 0.5 mmol/L Na2HPO4, 5 mmol/L KCl, 2 mmol/L MgCl2, 1 mmol/L CaCl2, and 0.1% glucose, at pH 7.4. Stock solutions of Convulxin (CVX) GPVI were prepared on the day of experimentation and added to platelet suspensions 5 minutes (37° C., 1200 rpm) before the induction of aggregation. Aggregation was assessed with a Chronolog Lumi-Aggregometer (model 540 VS; Chronolog, Havertown, Pa.) and permitted to proceed for 6 minutes after the addition of agonist. The results are reported as maximum percent change in light transmittance from baseline with platelet buffer used as a reference.
In FIG. 129, the results of CVX-induced (250 ng/mL) human platelet aggregation results before and 15 minutes after administration of the BTK inhibitors to 6 healthy individuals are shown.

NK cells = assay: Antibody-stimulated NK cell degranulation (CD107a), flow cytometry; assay type: cell-based, human; conditions: DHL-4 target cells
Raji cells [7] = assay: Rituximab ADCC assay (51Cr release), healthy donor NK cells; assay type: cell-based, human; conditions: 1 μM
CD4^+ T cells = assay: Th17 and Treg development from CD4+ T cells; assay type: cell-based
Experimental: Enriched CD4^+ T cells are plated on 24-well culture dishes that have been precoated 2 hr with 250 μL anti-TCRβ (0.5 μg/mL) plus anti-CD28 (5 μg/mL) at 37° C. in PBS. The cells are then supplemented with media containing BTK inhibitors along with the skewing cytokines as indicated in the following. The Th17 and Treg cultures are grown for 4 days before analysis. The cells are maintained for an additional 3 days with skewing cytokines (Th17; 20 ng/mL IL-6, 0.5 ng/mL TGF-β, 5 μg/mL IL-4, 5 μg/mL IFN-γ and Treg; 0.5 ng/mL TGF-β, 5 μg/mL IL-4, 5 μg/mL IFN-γ) and are supplemented with IL2 as a growth factor.

CD8^+ T cells [8] = assay: CD8+ T cell viability (LIVE/DEAD staining, 4 days); assay type: cell-based
Experimental: Total T cells were plated on anti-TCR and anti-CD28 coated wells in the presence of both BTK inhibitors. Neutral culture conditions were used that will not polarize T cells to a helper lineage. The cells are grown for 4 days and are then stained with anti-CD4, anti-CD8 and LIVE/DEAD reagent to determine if the drugs have selective effects on either the CD4^+ or CD8^+ cells. Statistical significance was calculated using the Mann Whitney T-test. […]

CD8^+ T cells [9] = assay: Cytotoxic T cell (CTL) assay; assay type: cell-based; conditions: 500 nM
Experimental: Without being bound by any theory, CD8^+ T cells have two primary effector functions: (1) produce large amounts of IFN-γ (which activates macrophages), and (2) cytolytic activity. […] The targets were B lymphoblasts from lipopolysaccharide (LPS) treated cultures. The assay was performed by incubating different ratios of effectors:targets for 4 hours.

relapsed/refractory CLL = conditions: cited from earlier work

With C=CC(=O)Nc1cccc(Nc2nc(Nc3ccc(OCCOC)cc3)ncc2F)c1 [CC-292] the EC50 (B cell receptor) was 121 nM.

For C[C@H](Nc1ncnc2[nH]cnc12)c1cc2ccc(F)cc2nc1-c1ccccn1 [Formula (IX), (S)—N-(1-(7-fluoro-2-(pyridin-2-yl)quinolin-3-yl)ethyl)-9H-purin-6-amine, reference compound], the “tumor volume versus vehicle” value [1] was “statistically significant reductions in tumor volume”.

With C=CC(=O)N1CCC[C@@H](n2nc(-c3ccc(Oc4ccccc4)cc3)c3c(N)ncnc32)C1 [ibrutinib, 1-[(3R)-3-[4-amino-3-(4-phenoxyphenyl)-1H-pyrazolo[3,4-d]pyrimidin-1-yl]piperidin-1-yl]prop-2-en-1-one, reference compound] the “antibody-dependent NK cell-mediated cytotoxicity (percent lysis of tumor cells)” value (Raji cells [2]) was “antagonizes antibody-dependent NK cell-mediated cytotoxicity”, the “effect on Th17 cells” value (T helper 17 (Th17) cells) was “strongly inhibits Th17 cells” and the “effect on Treg development” value [3] was “strongly increases Treg development”. For the same compound, the “effect on CD8+ T cell viability” value (CD8^+ T cell) was “strongly affects CD8^+ T cell viability at higher doses”, the “CD8+ T cell function as measured by % cytotoxicity” value (CD8^+ T cell function [4]) was “affects CD8^+ T cell function” and the “CD8+ T cell function as measured by IFN-γ level” value (CD8^+ T cell function [5]) was “affects CD8^+ T cell function”. For the same compound, the “effect on thrombus formation” value [6] was “interfere with thrombus formation”, the GPVI platelet aggregation (human platelets) was “significantly inhibits GPVI platelet aggregation” and the “inhibition of rituximab-stimulated NK cell degranulation” value (NK cells) was ~50%. For the same compound, the “effect on rituximab-mediated ADCC” value (Raji cells [7]) was “strongly inhibited”, the “effect on Th17 and Treg development” value (CD4^+ T cells) was “profound inhibition of Th17 cells and an increase in Treg development” and the “effect on CD8^+ T cell viability” value (CD8^+ T cells [8]) was “strong, negative effect on CD8^+ T cell viability”. For the same compound, the “CD8^+ T cell function as % cytotoxicity” value (CD8^+ T cells [9]) was “affects CD8^+ T cell function” and the “CD8^+ T cell function as IFN-γ levels” value (CD8^+ T cells [9]) was “significant loss of function”.

In the case of “obinutuzumab: type II glycoengineered CD20 monoclonal antibody”, the “Grade 3 IRRs” value (relapsed/refractory CLL; Phase 1 portion (n=13)) is listed as 15%, the “patients who experienced IRRs” value (relapsed/refractory CLL; Phase 1 portion (n=13)) is listed as “all patients” and the “IRR cases developing symptoms of hypotension” value (relapsed/refractory CLL; Phase 2 portion) is listed as 60%. The “hypotension cases that were Grade 3 reactions” value (relapsed/refractory CLL; Phase 2 portion) was 25%, the “patients who developed IRR” value (relapsed/refractory CLL; Phase 2 portion) was 95% and the response rate (relapsed/refractory CLL; monotherapy, Phase 1, previously treated CLL) was 62%.
